Measured values as given in the Deep4Chem optical property database.

Experiment: solvent given as SMILES

With `CN(C)c1nc(N)nc2c1nc(C#N)n2Cc1ccccc1` the emission maximum (in C1COCCO1) was 373 nm, the emission maximum (in CC#N) was 378 nm and the emission maximum (in CO) was 389 nm. It also gave an emission maximum (in ClCCl) of 375 nm.

Work on `COc1cc(OC)c(C2=C3C(C)=CC(C)=[N+]3[B-](F)(F)n3c(C)cc(C)c32)c(OC)c1` yielded an emission maximum (in C1CCOC1) of 517 nm, an emission maximum (in CC#N) of 513 nm and an emission maximum (in CC(=O)C(C)(C)C) of 517 nm. It also gave an emission maximum (in CC(C)=O) of 515 nm, an emission maximum (in CCCCCC) of 520 nm and an emission maximum (in CCOC(C)=O) of 511 nm. For the same compound, the emission maximum (in CO) was 515 nm.

Compound `c1cc2ccc1-c1ccc(cc1)-c1sc(c3c1OCCO3)-c1ccc(cc1)-c1ccc(cc1)-c1sc(c3c1OCCO3)-c1ccc(cc1)-c1ccc(cc1)-c1sc-2c2c1OCCO2` has an emission maximum (in C1CCOC1) of 555 nm.

In the case of `CCN(C(C)=O)c1cc2c(cc1C)C(c1ccccc1C(=O)O)=C1CCCC(/C=C/C3=[N+](C)c4ccc5ccccc5c4C3(C)C)=C1O2`, the emission maximum (in CCO) is reported as 715 nm.

Compound `CC(=O)c1ccc2ccc3c(NCCC(=O)NCCCCCCc4nc5c(=O)[nH]c(N)nc5n4[C@H]4C[C@H](O)[C@@H](CO)O4)ccc4ccc1c2c43` has an emission maximum (in C1CCOC1) of 523 nm, an emission maximum (in CC#N) of 546 nm and an emission maximum (in CC(C)O) of 557 nm. The emission maximum (in CCO) was 559 nm, the emission maximum (in CN(C)C=O) was 543 nm and the emission maximum (in CO) was 565 nm. It also gave an emission maximum (in CS(C)=O) of 551 nm, an emission maximum (in O) of 573 nm and an emission maximum (in OCC(O)CO) of 567 nm.

For `c1ccc2c(-c3cc4c(ccc5sc(-c6cccc7ccccc67)cc54)s3)cccc2c1`, the emission maximum (in ClCCl) was 423 nm.

Compound `COc1ccc(-c2cc3c(s2)-c2sc(-c4ccc(OC)cc4)cc2P(c2ccccc2)(c2ccccc2)=[O+][B-]3(c2c(C)cc(C)cc2C)c2c(C)cc(C)cc2C)cc1` has an emission maximum (in C1CCOC1) of 513 nm.

`COc1cc(/C=C/c2cc(OC)c(-c3nc(-c4ccccc4)c(-c4ccccc4)[nH]3)cc2OC)c(OC)cc1/C=C/c1cc(OC)c(-c2nc(-c3ccccc3)c(-c3ccccc3)[nH]2)cc1OC` gave an emission maximum (in C1CCOC1) of 510 nm, an emission maximum (in CC#N) of 515 nm and an emission maximum (in CN(C)C=O) of 512 nm. It also gave an emission maximum (in Cc1ccccc1) of 502 nm.

`COc1c2ccccc2c(OC)c2c(C#Cc3ccccc3)c3cc4sccc4cc3c(C#Cc3ccccc3)c12` showed an emission maximum (in ClCCl) of 672 nm.

With `COC(=O)/C=C/C1=CC2=C(c3c(C)cc(C)cc3C)c3cccn3[B-](F)(F)[N+]2=C1` the emission maximum (in ClCCl) was 570 nm.

In the case of `O=c1cc(-c2ccccc2)oc(-c2nc3ccccn3c2NC2CCCCC2)c1`, the emission maximum (in ClCCl) is reported as 475 nm.

`c1ccc2c(c1)[nH]c1cccnc12` showed an emission maximum (in C1CCCCC1) of 341 nm, an emission maximum (in C1CCOC1) of 352 nm and an emission maximum (in C1COCCO1) of 367 nm. The emission maximum (in CCO) was 385 nm, the emission maximum (in CN(C)C=O) was 371 nm and the emission maximum (in Cc1ccccc1) was 350 nm. For the same compound, the emission maximum (in ClC(Cl)Cl) was 369 nm and the emission maximum (in Clc1ccccc1) was 364 nm.

Compound `Nc1cccc2c1-c1ccccc1C2=O` has an emission maximum (in C1CCCCC1) of 513 nm, an emission maximum (in CC#N) of 604 nm and an emission maximum (in CCO) of 667 nm. For the same compound, the emission maximum (in c1ccccc1) was 544 nm.

Compound `O=c1c2cc(F)c(O)cc2oc2cc(N3CCCCC3)c(F)cc12` has an emission maximum (in CCO) of 445 nm.

Work on `COc1ccc2c(c1)c1ccc3cccc4c5cccc6oc(=O)c2c(c65)c1c34` yielded an emission maximum (in C1CCOC1) of 440 nm.

`c1cc2ccc3cc4[nH]c(-c5cc6c(cc7ccc8cccc9ccc6c7c89)[nH]5)cc4c4ccc(c1)c2c34` showed an emission maximum (in C1CCOC1) of 482 nm.

Work on `c1ccc(-c2nc3cc4c(cc3n2-c2ccccc2)nc(-c2ccccc2)n4-c2ccccc2)cc1` yielded an emission maximum (in CC#N) of 397 nm.

With `F[B-]1(F)Oc2ccccc2-c2n(-c3ccc(C(F)(F)F)cc3)c(-c3ccccc3)c(-c3ccccc3)[n+]21` the emission maximum (in C1CCOC1) was 390 nm.

Work on `CCCCCCCCC1(CCCCCCCC)c2cc(-c3ccc([N+](=O)[O-])cc3)ccc2-c2ccc(-c3ccc([N+](=O)[O-])cc3)cc21` yielded an emission maximum (in CN(C)C=O) of 569 nm, an emission maximum (in CS(C)=O) of 589 nm and an emission maximum (in ClC(Cl)Cl) of 538 nm.

`CN1/C(=C/C=C(/C=C/c2sc3ccccc3[n+]2C)c2cc(F)cc(F)c2)Sc2ccccc21` showed an emission maximum (in CCO) of 670 nm, an emission maximum (in CO) of 668 nm and an emission maximum (in CS(C)=O) of 675 nm. For the same compound, the emission maximum (in O) was 671 nm.

`CCn1c2ccc(-c3cccs3)cc2c2cc(-c3cccs3)ccc21` showed an emission maximum (in ClCCl) of 392 nm.
